Experimental findings from patent US8742100B2, “Small molecule inhibitors of isoprenylcysteine carboxyl methyltransferase with potential anticancer activity” (National University of Singapore, priority 2009, dated 2014) are described below.

Data set [1] is described as follows: Binding to fetal bovine serum (plasma protein binding), centrifugal filter device, HPLC. The conditions noted are these: bovine, 5% w/v fetal bovine serum in phosphate buffered saline; for fraction unbound at 30 min, 1 µM / fraction unbound at 30 min, 4 µM / fraction unbound at 30 min, 10 µM / fraction unbound at 30 min, 25 µM: 5% fetal bovine serum in PBS; for fraction unbound at 30 min: all conc (1, 4, 10, 25 uM), read-out: % Bound Average, all conc (converted). The format is in vitro ADME. The protocol:
(§1) Semi-automatic high-throughput determination of plasma protein binding using a 96-well plate filtrate assembly and fast liquid chromatography—tandem mass spectrometry. […] Stock solutions were prepared in DMSO at 100× higher concentrations. A 5% w/v solution of fetal bovine serum in phosphate buffered saline was prepared. An aliquot (10 μL of the stock solution was added to 990 μL of the PBS solution containing 5% fetal bovine serum in a glass tube which was then incubated in a shaking water bath at 37° C. for 30 min. 500 μL of the solution was then transferred to a centrifugal filter device (Amicon Ultra 0.5 ml # UFC503096) and centrifuged at 14 000g, 15 min. After this time, the filter units were removed and placed (upside down) in a collecting tube containing 477 μL, of PBS. The latter was centrifuged at 2000g, 2 min to obtain the retentate. […] J.

In a further data set the test system is fetal bovine serum. Described as above. The format is in vitro ADME. The conditions noted are these: fetal bovine serum. The protocol:
as §1

[2] abbreviates: read-out: % Bound Average (converted).
Where [3] appears, read: read-out: % Bound Run 1 (converted).
[4] abbreviates: read-out: % Bound Run 2 (converted).
The mark [5] stands for this setting: read-out: % Bound Run 3 (converted).

Where two headings read alike, the source gives them in different places.

As to `CCCCCCCCn1cc(CN(CC)CC)c2cc(-c3cccc(C)c3)ccc21` [Compound J17G, N-ethyl-N-((1-octyl-5-m-tolyl-1H-indol-3-yl)methyl)ethanamine], in data set [1] (setting [2]), the fraction unbound at 30 min, 1 µM is 0.182; the fraction unbound at 30 min, 4 µM is 0.272; the fraction unbound at 30 min, 10 µM is 0.299; the fraction unbound at 30 min, 25 µM was 0.304. In addition, in data set [1] (setting [3]), the fraction unbound at 30 min, 1 µM is 0.17; the fraction unbound at 30 min, 4 µM was 0.274; the fraction unbound at 30 min, 10 µM is 0.317; the fraction unbound at 30 min, 25 µM is 0.286. In data set [1] (setting [4]), the fraction unbound at 30 min, 1 µM is 0.224; the fraction unbound at 30 min, 4 µM is 0.301; the fraction unbound at 30 min, 10 µM is 0.353; the fraction unbound at 30 min, 25 µM was 0.352. In addition, in data set [1] (setting [5]), the fraction unbound at 30 min, 1 µM was 0.151; the fraction unbound at 30 min, 4 µM was 0.243; the fraction unbound at 30 min, 10 µM was 0.226; the fraction unbound at 30 min, 25 µM is 0.275. Moreover, the fraction unbound at 30 min in data set [1] was 0.264. In the data set with fetal bovine serum, the “binding capacity compared with cysmethynil” value is recorded as “lower binding capacities than cysmethynil”.

For the compound `CCN(CC)Cc1cn(CC=C(C)C)c2ccc(-c3cccc(C)c3)cc12` [Compound J38G, N-ethyl-N-((1-(3-methylbut-2-enyl)-5-m-tolyl-1H-indol-3-yl)methyl)ethanamine], the fraction unbound at 30 min, 1 µM is 0.776 in data set [1] (setting [2]), 0.747 in data set [1] (setting [3]), 0.845 in data set [1] (setting [4]) and 0.737 in data set [1] (setting [5]). The fraction unbound at 30 min, 4 µM was 0.638 in data set [1] (setting [2]), 0.616 in data set [1] (setting [3]), 0.676 in data set [1] (setting [4]) and 0.621 in data set [1] (setting [5]). Further, the fraction unbound at 30 min, 10 µM is 0.765 in data set [1] (setting [2]), 0.697 in data set [1] (setting [3]), 0.783 in data set [1] (setting [4]) and 0.815 in data set [1] (setting [5]). Moreover, the fraction unbound at 30 min, 25 µM in data set [1] (setting [2]) was 0.737; in data set [1] (setting [3]) it was 0.725; in data set [1] (setting [4]) it was 0.792; in data set [1] (setting [5]), 0.693. Besides, the fraction unbound at 30 min in data set [1] is 0.729. Moreover, in the data set with fetal bovine serum, the “binding capacity compared with cysmethynil” value is listed as “lower binding capacities than cysmethynil”.
